Converted amounts (≈) assume the structure as drawn.

Holding throughout (type): in vivo
Experiment [1] concerns bean aphid (Aphis fabae Scop.). Put plainly: Bean Aphid Foliage Spray Test. Particulars: foliar, 24 hour holding period, read-out: Insect LD50, Aphid. As for the experimental part: (§1) Suspensions of the test compouns were prepared by dissolving one gram of compound in 50 milliliters of acetone in which had been dissolved 0.1 gram (10 percent of the weight of compound) of an alkylphenoxy polyethoxyethanol surfactant, as an emulsifying or dispersing agent. The resulting solution was mixed into 150 milliliters of water to give roughly 200 milliliters of a suspension containing the compound in finely divided form. The thus-prepared stock suspension contained 0.5 percent by weight of compound. The test concentrations in parts per million by weight employed in the tests described hereinbelow were obtained by appropriate dilutions of the stock suspension with water. The test procedures were as follows:
Bean Aphid Foliage Spray Test
Adults and nymphal stages of the bean aphid (Aphis fabae Scop.) reared on potted dwarf nasturtium plants at 65°-70° F. and 50-70 per cent relative humidity, constituted the test insects. For testing purposes, the number of aphids per pot was standardized to 100-150 by trimming plants containing excess aphids.
The test compounds were formulated by diluting the stock suspension with water to give a suspension containing 500 parts of test compound per million parts of final formulation.
The potted plants (one pot per compound tested) infested with 100-150 aphids, were placed on a revolving turntable and sprayed with 100 -110 milliliters of test compound formulation by use of a DeVilbiss spray gun set at 40 psig. air pressure. This application, which lasted 25 seconds, was sufficient to wet the plants to run-off. As a control, 100-110 milliliters of a water-acetone-emulsifier solution containing no test compound were also sprayed on infested plants. After spraying, the pots were placed on their sides on a sheet of white standard mimeograph paper which had peen previously ruled to facilitate counting. Temperature and humidity in the test room during the 24 hour holding period were 65°-70° F. and 50-70 per cent, respectively. Aphids which fell onto the paper and were unable to remain standing after being uprighted were considered dead. Aphids remaining on the plants were observed closely for movement and those which were unable to move the length of the body upon stimulation by prodding were considered dead. Per cent mortality was recorded for various concentration levels.

Experiment [2] has as its system southern armyworm (Spodoptera eridania, (Cram.)). The experiment in a line: Southern Armyworm Leaf Spray Bait Test. To be noted: for LC50: Spodoptera eridania, 72 h, leaf spray bait, 3 days, read-out: Insect LD50, Armyworm; for (b) relative efficacy of derivative vs parent compound, Armyworm: bait, formula of footnote b is drawing 8. As for the experimental part: as §1
Southern Armyworm Leaf Spray Bait Test
Larvae of the southern armyworm (Spodoptera eridania, (Cram.)), reared on Tendergreen bean plants at a temperature of 80°±5° F. and a relative humidity of 50±5 per cent, constituted the test insects.
The test compounds were formulated by diluting the stock suspension with water to give a suspension containing 500 parts of test compound per million parts of final formulation. Potted Tendergreen bean plants of standard height and age were placed on a revolving turntable and sprayed with 100-110 milliliters of test compound formulation by use of a DeVilbiss spray gun set at 10 psig air pressure. This application, which lasted 25 seconds, was sufficient to wet plants to run-off. As a control, 100-110 milliliters of a water-acetone-emulsifier solution containing no test compound were also sprayed on infested plants. When dry, the paired leaves were separated and each one was placed in a 9 centimeter Petri dish lined with moistened filter paper. Five randomly selected larvae were introduced into each dish and the dishes were closed. The closed dishes were labeled and held at 80°-85° F. for 3 days. Although the larvae could easily consume the whole leaf within 24 hours, no more food was added. Larvae which were unable to move the length of the body, even upon stimulation by prodding, were considered dead. Per cent mortality was recorded for various concentration levels.
(§2) In Table 1 are presented insect and rat toxicity data (bait tests) on a comparative basis of the compounds described above. […] Rat toxicity is also more meaningfully compared on the basis of molar weight LD50 values. The relative efficacy of the parent compounds as compared to the previously known derivatives and as compared to the new compounds of this invention is also shown in Table 1. The ratio of efficacy as contact poisons (immersion/bait) of the compounds tested against Armyworm and House Fly is presented in Table 2 along with the results of the phytotoxicity tests of the compounds on bean, corn, tomato and cotton.

Experiment [3] deals with two-spotted mite (Tetranychus urticae Koch). The experiment in a line: Mite Foliage Spray Test. To be noted: foliar, 144 h, 6 days, read-out: Insect LD50, Mite. As to the method:
as §1
Adults and nymphal stage of the two-spotted mite (Tetranychus urticae Koch), reared on Tendergreen bean plants at 80±5 per cent relative humidity, were the test organisms. Infested leaves from a stock culture were placed on the primary leaves of two bean plants 6 to 8 inches in height, growing in a 21/2 inch clay pot. 150-200 Mites, a sufficient number for testing, transferred from the excised leaves to the fresh plants in a period of twenty four hours. Following the twenty four hour transfer period, the excised leaves were removed from the infested plants. The test compounds were formulated by diluting the stock suspension with water to give a suspension containing 500 parts of test compound per million parts of final formulation. The potted plants (one pot per compound) were placed on a revolving turntable and sprayed with 100-110 milliliters of test compound formulation by use of a DeVilbiss spray gun set at 40 psig. air pressure. This application, which lasted 25 seconds, was sufficient to wet the plants to run-off. As a control, 100-110 milliliters of a water solution containing acetone and emulsifier in the same concentrations as the test compound formulation, but containing no test compound, were also sprayed on infested plants. The sprayed plants were held at 80±5 per cent relative humidity for 6 days, after which a mortality count of motile forms was made. Microscopic examination for motile forms was made on the leaves of the test plants. Any individual which was capable of locomotion upon prodding was considered living.

Experiment [4] concerns southern armyworm (Spodoptera eridania, (Cram.)). Put plainly: Armyworm Immersion Test. To be noted: for LC50: Spodoptera eridania, 72 h, immersion (contact), 3 days, read-out: Imm LD50, Armyworm; for contact vs stomach poison, army worm (in words): immersion vs bait; for (Imm/Bait), Armyworm: ratio immersion/bait LD50. As for the experimental part: as §1
The test organism used was the fourth instar larvae of the southern armyworm (Spodoptera eridania, (Cram.)) reared on Tendergreen beans in a room where temperature was held at 80° ± 5° F. and relaitve humidity 50 ± 5 percent.
Ten randomly selected larvae were thoroughly wetted in a formulated mixture of the chemical (50 ml) by pouring the insects and formulation from one beaker to another six times. Excess liquid was removed by transferring the larvae to paper towels. An equivalent amount of a water solution containing acetone and emulsifier in the same concentrations as the insecticidal mixture but without the candidate insecticide was applied in the same manner as a controls for the experiment. When dry, 5 larvae were placed in each of two 9-cm Petri dishes lined with filter paper and containing one fully expanded Tendergreen bean leaf per dish as food.
The closed dishes were held at 80°-85° F. for 3 days. Although the larvae can easily consume the whole leaf within 24 hours, no more food was added. Check larvae remained vigorous during the entire holding period. At the end of the holding period larvae which were unable to move the length of the body, even upon stimulation, were considered dead.
as §2

With `CNC(=O)ON=C(C)SC` [Compound 1, O-(methylcarbamoyl) S-methyl acetothiolhydroximate], the LC50 in experiment [1] came to 4 µg/mL (≈ 24.7 µM); in experiment [2] it was 11 µg/mL (≈ 67.8 µM); in experiment [3] it was 500 µg/mL (≈ 3080 µM); in experiment [4], 8 µg/mL (≈ 49.3 µM). For the same compound, in experiment [4], the “contact vs stomach poison, army worm (in words)” value (shortened to “contact vs stomach poison”) is recorded as “significantly more toxic as stomach poisons than as contact poisons”. Besides, the “(Imm/Bait), Armyworm” value in experiment [4] stood at 2.
Regarding `CSC(C)=NOC(=O)N(C)Sc1ccc(C)cc1` [Compound 6], the LC50 is 5 µg/mL (≈ 17.6 µM) in experiment [1], 6 µg/mL (≈ 21.1 µM) in experiment [2], 95 µg/mL (≈ 334 µM) in experiment [3] and 10 µg/mL (≈ 35.2 µM) in experiment [4]. In addition, the “(b) relative efficacy of derivative vs parent compound, Armyworm” value (shortened to “(b) relative efficacy of derivative”) in experiment [2] worked out at 3.2. In addition, the “(Imm/Bait), Armyworm” value in experiment [4] turned out to be 1.7.
`CSC(C)=NOC(=O)N(C)Sc1ccc(Cl)cc1` [Compound 4]: the LC50 in experiment [1] worked out at 2 µg/mL (≈ 6.56 µM); in experiment [2] it was 10 µg/mL (≈ 32.8 µM); in experiment [3] it was 500 µg/mL (≈ 1640 µM); in experiment [4], 47 µg/mL (≈ 154 µM). The “(b) relative efficacy of derivative” value in experiment [2] is 2.1. In addition, the “(Imm/Bait), Armyworm” value in experiment [4] is 0.47.
Turning to `CCSC(C)=NOC(=O)NC` [Compound 3], the LC50 in experiment [1] amounted to 12 µg/mL (≈ 68.1 µM); in experiment [2], 11 µg/mL (≈ 62.4 µM); in experiment [3] it was 250 µg/mL (≈ 1420 µM).
As to `CC(=NOC(=O)N(C)Sc1ccc(C)cc1)SC(C)C` [Compound 7], the LC50 in experiment [1] was 5 µg/mL (≈ 16 µM); in experiment [2], 12 µg/mL (≈ 38.4 µM); in experiment [3], 42 µg/mL (≈ 134 µM); in experiment [4] it was 14.4 µg/mL (≈ 46.1 µM). The “(b) relative efficacy of derivative” value in experiment [2] stood at 2.3. Also, the “(Imm/Bait), Armyworm” value in experiment [4] came out at 1.2.
Take `CC(=NOC(=O)N(C)Sc1ccc(Cl)cc1)SC(C)C` [Compound 5]: the LC50 in experiment [1] was determined as 3 µg/mL (≈ 9.01 µM); in experiment [2], 30 µg/mL (≈ 90.1 µM); in experiment [3], 58 µg/mL (≈ 174 µM); in experiment [4] it was 4.5 µg/mL (≈ 13.5 µM). In addition, the “(b) relative efficacy of derivative” value in experiment [2] is given as 1.0. Moreover, in experiment [4], the “(Imm/Bait), Armyworm” value is recorded as 0.15.
For `CNC(=O)ON=C(C)SC(C)C` [Compound 2], the LC50 in experiment [1] amounted to 25 µg/mL (≈ 131 µM); in experiment [2], 17 µg/mL (≈ 89.3 µM); in experiment [3], 450 µg/mL (≈ 2370 µM); in experiment [4], 53 µg/mL (≈ 279 µM). Also, the “contact vs stomach poison” value in experiment [4] is “significantly more toxic as stomach poisons than as contact poisons”. Also, in experiment [4], the “(Imm/Bait), Armyworm” value stood at 3.1.
As to `CSC(C)=NOC(=O)N(C)Sc1ccc(C(C)(C)C)cc1` [Compound 8, O-[N-Methyl-N-[4-(t-butylphenyl)sulfenyl]carbamoyl] S-Methyl Acetothiolhydroximate], the LC50 in experiment [1] was 2.5 µg/mL (≈ 7.66 µM). In addition, in experiment [2], the LC50 turned out to be 4 µg/mL (≈ 12.3 µM) and the “(b) relative efficacy of derivative” value turned out to be 5.7. The LC50 in experiment [3] came to 380 µg/mL (≈ 1160 µM). In experiment [4], the LC50 came out at 4 µg/mL (≈ 12.3 µM); the “contact vs stomach poison” value was “outstanding contact poison”; the “(Imm/Bait), Armyworm” value worked out at 1.
For `CC(=NOC(=O)N(C)Sc1ccc(C(C)(C)C)cc1)SC(C)C` [Compound 9, O-[N-Methyl-N-[4-(t-Butylphenyl)sulfenyl]carbamoyl] S-Isopropyl Thiolacetohydroximate], the LC50 in experiment [1] is 9 µg/mL (≈ 25.4 µM); in experiment [2] it was 19 µg/mL (≈ 53.6 µM); in experiment [3] it was 42 µg/mL (≈ 118 µM); in experiment [4], 5 µg/mL (≈ 14.1 µM). Further, the “(b) relative efficacy of derivative” value in experiment [2] amounted to 1.6. Also, the “(Imm/Bait), Armyworm” value in experiment [4] is listed as 0.25.

For the origin of these results see patent US3998963A, “Tertiary butyl substituted carbamoyl oxime pesticides” (priority 1975, dated 1976).
